For five compounds, melting point and EC50 results are on record in patent US7666868B2, “N-sulphonylpyrroles and their use as histone deacetylase inhibitors” (4SC AG, priority 2005, dated 2010).

Data set [1] relates to histone H3 acetylation (lysine 9+14) in HeLa cervical carcinoma cells. Nature of the data set: Cellular histone H3 acetylation assay. The format is cell-based. The conditions noted are these: Homo sapiens, 24 h incubation with compound, read-out: EC50 (histone H3 acetylating cellular potency). The source says: To assess the cellular efficacy of an histone deactylase inhibitor in vitro, an assay is set up in black clear-bottom 96-well plates and optimized for use on the Cellomics “ArrayScan II” platform for a quantitative calculation of histone acetylation. The protocol uses a polyclonal rabbit antibody, specifically binding to acetylated lysine 9+14 of human histone H3 on fixed cells with an Alexa Fluor 488 labeled goat ant rabbit-IgG used for counterstaining (modified from Braunger et al. MCR annual conference 2003, Abstract 4556).
5×10^3 HeLa cervical carcinoma cells/well (ATCC CCL-2) in 200 μl Dulbecco's modified Eagle's medium (DMEM) containing 10% fetal calf serum are seeded at day 1 in Packard view plates and incubated for 24 h under standard cell culture conditions. On day 2, 2 μl test compound (100× final concentration) is added and incubation continued for further 24 h. On day 3, the culture medium is discarded and attached cells fixed for 15 min at room temperature by addition of 100 μl fixation buffer (3.7% v:v formaldehyde in phosphate buffered saline/PBS). After discarding the fixation buffer and one wash with PBS, cells are permeabilized at room temperature by addition of 100 μl/well permeabilization buffer (30.8 mM NaCl, 0.54 mM Na2HPO4, 0.31 mM KH2PO4, 5% v:v Triton X-100) for 15 min at room temperature. After discarding the permeabilization buffer and washing twice with 100 μl/well blocking solution (PBS with 0.05% v:v Tween 20 and 5% w:v milk powder) at room temperature, the 1st antibody (anti-K9+14 histone H3 antibody, Calbiochem No. 382158) in blocking solution (50 μl/well) is added. After incubation for 1 h at 37° C., the wells are washed twice at room temperature with 100 μl/well blocking solution before addition of the 2nd antibody (goat-anti-rabbit Alexa Fluor 488; MoBiTec No. A-11008) in blocking solution (50 μl/well). After further incubation for 1 h at 37° C., wells are washed twice with 100 μl/well blocking solution room temperature. Finally, 100 d/well PBS are added and image analysis performed on the Cellomics “ArrayScan II” platform. For calculation of EC50 values, the nuclear fluorescence in cells treated with and without a reference HDAC inhibitor (eg NVP-LBH-589) are taken as a positive and negative control. For EC50 determination, the percentage of positive cells is determined and EC50 calculation done from concentration-effect curves by means of non-linear regression.

By melting point is commonly meant the temperature, or range, at which the solid turns liquid. Compound `Nc1ccccc1NC(=O)/C=C/c1ccn(S(=O)(=O)C2(CN3CCOCC3)C=CC(c3ccccc3)=CC2)c1` (centres unmarked) [Compound 107, (E)-N-(2-Amino-phenyl)-3-[1-(4-morpholin-4-ylmethyl-biphenyl-4-sulfonyl)-1H-pyrrol-3-yl]-acrylamide] showed a melting point of 196 to 201 °C.

In general, EC50 refers to the concentration at which the effect is half-maximal. In the case of `O=C(/C=C/c1ccn(S(=O)(=O)c2cc(-c3ccccc3)ccc2CCCN2CCOCC2)c1)NO` [Compound 45, (E)-N-Hydroxy-3-{1-[4-(3-morpholin-4-yl-propyl)-biphenyl-3-sulfonyl]-1H-pyrrol-3-yl}-acrylamide], the melting point fell in the range of 215 to 217 °C. Also, the EC50 in data set [1] lay within 27 to 4400 nM.

`Cc1ccc(S(=O)(=O)NC2(S(=O)(=O)n3ccc(/C=C/C(=O)NO)c3)C=CC(c3ccccc3)=CC2)cc1` (centres unmarked) [Compound 29, (E)-N-Hydroxy-3-{1-[4-(toluene-4-sulfonylamino)-biphenyl-4-sulfonyl]-1H-pyrrol-3-yl}-acrylamide] gave a melting point of 119 to 126 °C.

In turn, `O=C(/C=C/c1ccn(S(=O)(=O)c2cc(-c3ccccc3)ccc2CNC2CC2)c1)NO` [Compound 63, (E)-3-[1-(4-Cyclopropylaminomethyl-biphenyl-3-sulfonyl)-1H-pyrrol-3-yl]-N-hydroxy-acrylamide] showed a melting point of 118 to 119 °C. Also, in data set [1], the EC50 lay within 27 to 4400 nM.

Regarding `O=C(/C=C/c1ccn(S(=O)(=O)c2cc(-c3ccccc3)ccc2OCCCN2CCOCC2)c1)NO` [Compound 38, (E)-N-Hydroxy-3-{1-[4-(3-morpholin-4-yl-propoxy)-biphenyl-3-sulfonyl]-1H-pyrrol-3-yl}-acrylamide], the melting point was 167 to 172 °C. Besides, in data set [1], the EC50 lay in the range of 27 to 4400 nM.
